Legend:
Homo sapiens [1] = experiment: Effect on alanine transferase level in orally dosed HIV associated cryptococcal meningitis patient relative to control; assay type: functional
Homo sapiens [2] = experiment: Effect on platelet count in intravenously dosed HIV associated cryptococcal meningitis patient after 2 weeks relative to baseline; assay type: functional
Homo sapiens [3] = experiment: Effect on aspartate aminotransferase level in intravenously dosed HIV associated cryptococcal meningitis patient after 2 weeks relative to baseline; assay type: functional
Homo sapiens [4] = experiment: Effect on platelet count in intravenously dosed HIV associated cryptococcal meningitis patient relative to control; assay type: functional
Homo sapiens [5] = experiment: Effect on aspartate aminotransferase level in intravenously dosed HIV associated cryptococcal meningitis patient relative to control; assay type: functional
[6] = AUC in intravenously dosed HIV associated cryptococcal meningitis patient at 24 hrs; assay type: ADME, organism-based; design: time < 24 hr, route intravenous; settings: human, plasma, iv
Homo sapiens [7] = experiment: Effect on hemoglobin level in intravenously dosed HIV associated cryptococcal meningitis patient relative to control; assay type: functional
Homo sapiens [8] = experiment: Effect on neutrophils level in intravenously dosed HIV associated cryptococcal meningitis patient after 2 weeks relative to baseline; assay type: functional
[9] = Fungicidal activity in orally dosed HIV associated cryptococcal meningitis patient; assay type: functional, Cryptococcus
Homo sapiens [10] = experiment: Volume of distribution in orally dosed HIV associated cryptococcal meningitis patient normalized to weight; assay type: ADME, organism-based; settings: in vivo, po
[11] = AUC in orally dosed HIV associated cryptococcal meningitis patient at 24 hrs; assay type: ADME, organism-based; design: time < 24 hr, route oral; settings: human, plasma, po
Homo sapiens [12] = experiment: Effect on creatinine clearance in intravenously dosed HIV associated cryptococcal meningitis patient after 2 weeks relative to baseline; assay type: functional
Homo sapiens [13] = experiment: Effect on hemoglobin level in orally dosed HIV associated cryptococcal meningitis patient after 2 weeks relative to baseline; assay type: functional
Homo sapiens [14] = experiment: Effect on neutrophils level in intravenously dosed HIV associated cryptococcal meningitis patient relative to control; assay type: functional
Homo sapiens [15] = experiment: Effect on alanine transferase level in intravenously dosed HIV associated cryptococcal meningitis patient after 2 weeks relative to baseline; assay type: functional
Homo sapiens [16] = experiment: Effect on creatinine clearance in orally dosed HIV associated cryptococcal meningitis patient relative to control; assay type: functional
Homo sapiens [17] = experiment: Effect on creatinine clearance in orally dosed HIV associated cryptococcal meningitis patient after 2 weeks relative to baseline; assay type: functional
Homo sapiens [18] = experiment: Effect on neutrophils level in orally dosed HIV associated cryptococcal meningitis patient after 2 weeks relative to baseline; assay type: functional
Homo sapiens [19] = experiment: Effect on platelet count in orally dosed HIV associated cryptococcal meningitis patient relative to control; assay type: functional
Homo sapiens [20] = experiment: Effect on platelet count in orally dosed HIV associated cryptococcal meningitis patient after 2 weeks relative to baseline; assay type: functional
[21] = Volume of distribution in intravenously dosed HIV associated cryptococcal meningitis patient normalized to weight; assay type: ADME, organism-based; settings: human, in vivo, iv; read-out: Vdss
Homo sapiens [22] = experiment: Effect on alanine transferase level in intravenously dosed HIV associated cryptococcal meningitis patient relative to control; assay type: functional
[23] = Oral clearance in HIV associated cryptococcal meningitis patient; assay type: ADME, organism-based; settings: human, in vivo
Homo sapiens [24] = experiment: Effect on neutrophils level in orally dosed HIV associated cryptococcal meningitis patient relative to control; assay type: functional
Homo sapiens [25] = experiment: Effect on creatinine clearance in intravenously dosed HIV associated cryptococcal meningitis patient relative to control; assay type: functional
[26] = Fungicidal activity in HIV associated Cryptococcal meningitis patient; assay type: functional, Cryptococcus
Homo sapiens [27] = experiment: Effect on hemoglobin level in orally dosed HIV associated cryptococcal meningitis patient relative to control; assay type: functional
Homo sapiens [28] = experiment: Effect on aspartate aminotransferase level in orally dosed HIV associated cryptococcal meningitis patient relative to control; assay type: functional
[29] = Clearance in intravenously dosed HIV associated cryptococcal meningitis patient; assay type: ADME, organism-based; settings: human, in vivo, iv
[30] = Fungicidal activity in intravenously dosed HIV associated cryptococcal meningitis patient; assay type: functional, Cryptococcus
Homo sapiens [31] = experiment: Effect on hemoglobin level in intravenously dosed HIV associated cryptococcal meningitis patient after 2 weeks relative to baseline; assay type: functional
Homo sapiens [32] = experiment: Effect on aspartate aminotransferase level in orally dosed HIV associated cryptococcal meningitis patient after 2 weeks relative to baseline; assay type: functional
Homo sapiens [33] = experiment: Effect on alanine transferase level in orally dosed HIV associated cryptococcal meningitis patient after 2 weeks relative to baseline; assay type: functional

## Nc1nc(=O)[nH]cc1F [FLUCYTOSINE]
Homo sapiens [1]
  Activity: 43 U/L
Homo sapiens [2]
  Activity: 83%
Homo sapiens [3]
  Activity: 100%
Homo sapiens [4]
  Activity: 249 10^9/L
Homo sapiens [5]
  Activity: 33 U/L
[6]
  AUC at 24 h: 1290 µg·h/mL
Homo sapiens [7]
  Activity: 11.2 g/dL
Homo sapiens [8]
  Activity: 59%
[9]
  log10cfu/day: -0.48
Homo sapiens [10]
  Vdss: 1.41 L/kg
[11]
  AUC at 24 h: 576 µg·h/mL
Homo sapiens [12]
  Activity: 76%
Homo sapiens [13]
  Activity: 70%
Homo sapiens [14]
  Activity: 5.6 10^9/L
Homo sapiens [15]
  Activity: 86%
Homo sapiens [16]
  Creatinine_CL: 75 mL/min
Homo sapiens [17]
  Activity: 83%
Homo sapiens [18]
  Activity: 73%
Homo sapiens [19]
  Activity: 263 10^9/L
Homo sapiens [20]
  Activity: 112%
[21]
  Vd: 0.94 L/kg
Homo sapiens [22]
  Activity: 38 U/L
[23]
  CL/F: 112 mL/min
Homo sapiens [24]
  Activity: 4.5 10^9/L
Homo sapiens [25]
  Creatinine_CL: 74 mL/min
[26]
  log10cfu/day: -0.46
Homo sapiens [27]
  Activity: 10.6 g/dL
Homo sapiens [28]
  Activity: 40 U/L
[29]
  clearance: 63.3 mL/min
[30]
  log10cfu/day: -0.43
Homo sapiens [31]
  Activity: 78%
Homo sapiens [32]
  Activity: 69%
Homo sapiens [33]
  Activity: 94%

From ChEMBL document CHEMBL1142082, “Oral versus intravenous flucytosine in patients with human immunodeficiency virus-associated cryptococcal meningitis” (Antimicrob Agents Chemother, 2007)
